Numbered stars: 1 amine (or outer) side, 2 acyl side, 3 side chain; on linkers, the order of the positions; unused ones are H or OH. Square brackets hold non-standard residues; d marks the D form. Side chains are listed from the residue outwards. Peptide text beside a SMILES is read from it. * marks the point of attachment. C20 diacid = O=C(O)CCCCCCCCCCCCCCCCCCC(=O)*; C18 diacid = O=C(O)CCCCCCCCCCCCCCCCC(=O)*; γGlu = O=C(O)[C@H](CCC(=O)[*:2])N[*:1]; αMeL = CC(C)C[C@](C)(N)C(=O)O; AEEA = NCCOCCOCC(=O)O; Aib = CC(C)(N)C(=O)O Where only a bound is given, the exact number is not on record here.

In one assay the target is T1, human Gcg receptor (Homo sapiens, UniProt P47871).
T1 construct: expressed in transfected cells; crude membranes
T1 sequence (P47871 26-477): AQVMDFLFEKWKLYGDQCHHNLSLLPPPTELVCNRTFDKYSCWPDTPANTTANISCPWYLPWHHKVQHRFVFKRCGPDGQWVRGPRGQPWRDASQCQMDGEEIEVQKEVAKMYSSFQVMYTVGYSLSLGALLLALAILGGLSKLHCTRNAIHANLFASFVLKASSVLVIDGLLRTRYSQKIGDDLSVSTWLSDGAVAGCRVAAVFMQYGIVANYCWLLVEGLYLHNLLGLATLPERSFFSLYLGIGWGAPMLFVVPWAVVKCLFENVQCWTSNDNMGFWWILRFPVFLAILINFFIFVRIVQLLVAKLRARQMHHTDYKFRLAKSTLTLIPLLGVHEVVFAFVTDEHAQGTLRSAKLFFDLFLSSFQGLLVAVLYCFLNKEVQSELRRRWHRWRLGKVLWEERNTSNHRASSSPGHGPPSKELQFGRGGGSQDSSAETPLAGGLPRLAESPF
In words: [125I]-Glucagon binding (SPA), human Gcg receptor. The note with it: read-out: hGLcgR Ki, nM (SEM, n). The method, boiled down:
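Crude membranes from cells expressing the receptor, prepared by hypotonic lysis in 50 mM Tris HCl pH 7.5 with protease inhibitors, homogenization and differential centrifugation, were used in a WGA-bead SPA. Binding buffer: 25 mM HEPES pH 7.4, 2.5 mM CaCl2, 1 mM MgCl2, bacitracin, Tween-20.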

Another assay addresses T2, human GIP receptor (Homo sapiens, UniProt P48546).
T2 construct: expressed in transfected cells; crude membranes
T2 sequence (P48546 22-466): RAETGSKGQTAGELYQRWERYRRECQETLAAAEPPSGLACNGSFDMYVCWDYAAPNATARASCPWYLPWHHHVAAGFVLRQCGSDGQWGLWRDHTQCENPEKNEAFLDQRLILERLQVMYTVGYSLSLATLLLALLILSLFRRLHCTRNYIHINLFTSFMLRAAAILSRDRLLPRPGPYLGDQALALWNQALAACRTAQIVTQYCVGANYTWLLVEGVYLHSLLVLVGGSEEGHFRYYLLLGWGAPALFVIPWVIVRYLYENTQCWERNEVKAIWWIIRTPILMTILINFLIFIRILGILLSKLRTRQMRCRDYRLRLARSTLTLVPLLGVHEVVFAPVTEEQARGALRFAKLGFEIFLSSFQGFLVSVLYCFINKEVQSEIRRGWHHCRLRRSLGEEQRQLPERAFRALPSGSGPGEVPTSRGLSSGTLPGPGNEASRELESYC
In words: [125I]-GIP binding (SPA), human GIP receptor. The note with it: read-out: hGIPR Ki, nM (SEM, n).

The target of assay [1] is human GLP-1 receptor (GLP-1R) (Homo sapiens, UniProt P43220). In words: cAMP pharmacological functional assay in presence of casein, hGLP-1R. The class given is cell-based. The note with it: HEK293 cells expressing hGLP-1R, 0.1% Casein, geometric mean; read-out: hGLP1R cAMP Rel EC50 nM (SEM, n).
Chain of human GLP-1 receptor (GLP-1R) (P43220 24-463): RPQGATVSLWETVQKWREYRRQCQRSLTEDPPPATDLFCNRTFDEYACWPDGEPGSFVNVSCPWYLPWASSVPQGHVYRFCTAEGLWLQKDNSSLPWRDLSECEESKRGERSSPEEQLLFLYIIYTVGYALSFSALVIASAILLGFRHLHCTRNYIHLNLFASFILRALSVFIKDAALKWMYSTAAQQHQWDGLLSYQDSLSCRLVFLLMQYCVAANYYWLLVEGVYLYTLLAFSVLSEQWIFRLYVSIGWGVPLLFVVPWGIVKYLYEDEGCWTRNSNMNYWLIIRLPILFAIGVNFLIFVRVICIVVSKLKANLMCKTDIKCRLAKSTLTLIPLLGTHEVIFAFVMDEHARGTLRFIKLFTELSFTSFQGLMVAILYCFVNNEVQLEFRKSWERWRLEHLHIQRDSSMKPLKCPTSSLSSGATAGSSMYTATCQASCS
Assay [2] has as its target T3, gastric inhibitory peptide receptor (GIPR) (Homo sapiens, UniProt P48546).
T3 sequence (P48546 22-466): T2 sequence (P48546 22-466)
In words: cAMP pharmacological functional assay in presence of casein, hGIPR. The class given is cell-based. As to conditions: HEK293 cells expressing hGIPR, 0.1% Casein, geometric mean; read-out: hGIPR cAMP Rel EC50 nM (SEM, n).

The target of assay [3] is T4, human GLP-1R (Homo sapiens, UniProt P43220). In words: [125I]-GLP-1 binding (SPA), human GLP-1 receptor. The note with it: read-out: hGLP1R Ki, (nM) (SEM, n). Also noted: expressed in transfected cells; crude membranes. In short, it runs like this:
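Frozen cell pellets are lysed on ice in hypotonic Tris buffer, pH 7.5, homogenized, and centrifuged to a membrane pellet resuspended at about 1 to 3 mg/mL. Binding is then measured in HEPES-based buffer at pH 7.4, and curves are fitted to give IC50 and Ki.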

Assay [4] has as its target T4, human GLP-1R. In words: GLP-1R CHO cell β-arrestin recruitment assay. The assay is classed as cell-based. Set-up: host or cells: CHO-K1 PathHunter cells, assay-ready frozen. As to conditions: for EC50: CHO-K1 cells, PathHunter β-arrestin-2 recruitment, 0.1% casein, read-out: hGLP1R B-Arrestin2 Rel EC50 uM (SEM, n); for hGLP1R B-Arrestin2 % Top: normalized to GLP-1 maximum control. An excerpt: Activated G-protein coupled receptors can interact with the β-arrestin family of signalling proteins. […] CHO-K1 cells expressing Pro-Link-tagged Human GLP-1R and enzyme-acceptor-tagged β-arrestin-2 may be obtained from DiscoveRx and prepared as assay-ready frozen cells. Test peptides are solubilized in DMSO and serial dilutions are perfomed using the Echo acoustic dispenser (LabCyte). Assay media is the PathHunter Cell Assay Buffer (DiscoveRx) containing 0.1% w/v hydrolyzed Casein (Sigma). […] Plates are incubated for 90 minutes in a 37′C/5% C02 incubator and 10 ul of PathHunter detection reagent is added (DiscoveRx) and plates are incubated at room temperature for 60 minutes. Luminescence signal is measured. Peptide concentration-response curves fit to a four-parameter logistic model to calculate potency as an EC50.
In general terms: Recruitment of arrestin is a read-out of receptor activation apart from second messengers.

T4 sequence (P43220 24-463): as above

As a reminder, the Ki is a measure of affinity in units of concentration, obtained from inhibition or displacement. Broadly, the EC50 is the concentration at which the effect is half-maximal. In the case of `CC[C@H](C)[C@H](NC(=O)[C@H](CC(C)C)NC(=O)[C@H](Cc1ccc(O)cc1)NC(=O)[C@H](CCC(=O)O)NC(=O)[C@@H](NC(=O)[C@H](Cc1ccccc1)NC(=O)[C@H](CC(=O)O)NC(=O)C(C)(C)NC(=O)[C@H](CCC(N)=O)NC(=O)[C@H](C)NC(=O)[C@H](CCCCNC(=O)COCCOCCNC(=O)COCCOCCNC(=O)CC[C@H](NC(=O)CCCCCCCCCCCCCCCCC(=O)O)C(=O)O)NC(=O)[C@H](CCCCN)NC(=O)[C@H](CC(=O)O)NC(=O)[C@H](CC(C)C)NC(=O)[C@H](CC(C)C)NC(=O)[C@@H](NC(=O)[C@H](CO)NC(=O)[C@H](Cc1ccc(O)cc1)NC(=O)[C@H](CC(=O)O)NC(=O)[C@H](CO)NC(=O)[C@@H](NC(=O)[C@H](Cc1ccccc1)NC(=O)[C@@H](NC(=O)CNC(=O)[C@H](CCC(=O)O)NC(=O)C(C)(C)NC(=O)[C@@H](N)Cc1ccc(O)cc1)[C@@H](C)O)[C@@H](C)O)[C@@H](C)CC)[C@@H](C)CC)C(=O)N[C@@H](CCC(=O)O)C(=O)NCC(=O)NCC(=O)N1CCC[C@H]1C(=O)N[C@@H](CO)C(=O)N[C@@H](CO)C(=O)NCC(N)=O` [Example 320] (H-Y[Aib]EGTFTSDYSILLDKK([AEEA-AEEA-γGlu-C18 diacid])AQ[Aib]DFIEYLIEGGPSSG-NH2; N-terminus assumed), the Ki on human Gcg receptor is above 1040 nM; at human GIP receptor, 0.136 nM; at human GLP-1R [3] it was 5.17 nM. For the same molecule, the EC50 in assay [1] was 0.397 nM; in assay [2] it was 0.161 nM.
The like results for `CC[C@H](C)[C@H](NC(=O)[C@H](CC(C)C)NC(=O)[C@H](Cc1ccc(O)cc1)NC(=O)[C@H](CCC(=O)O)NC(=O)[C@@H](NC(=O)[C@H](Cc1ccccc1)NC(=O)[C@@H](NC(=O)C(C)(C)NC(=O)[C@H](CCC(N)=O)NC(=O)[C@H](C)NC(=O)[C@H](CCCCNC(=O)COCCOCCNC(=O)COCCOCCNC(=O)CC[C@H](NC(=O)CCCCCCCCCCCCCCCCC(=O)O)C(=O)O)NC(=O)[C@H](CCCCN)NC(=O)[C@H](CC(=O)O)NC(=O)[C@H](CC(C)C)NC(=O)[C@H](CC(C)C)NC(=O)[C@@H](NC(=O)[C@H](CO)NC(=O)[C@H](Cc1ccc(O)cc1)NC(=O)[C@H](CC(=O)O)NC(=O)[C@H](CO)NC(=O)[C@@H](NC(=O)[C@H](Cc1ccccc1)NC(=O)[C@@H](NC(=O)CNC(=O)[C@H](CCC(=O)O)NC(=O)C(C)(C)NC(=O)[C@@H](N)Cc1ccc(O)cc1)[C@@H](C)O)[C@@H](C)O)[C@@H](C)CC)[C@@H](C)O)[C@@H](C)CC)C(=O)N[C@@H](CCC(=O)O)C(=O)NCC(=O)NCC(=O)N1CCC[C@H]1C(=O)N[C@@H](CO)C(=O)N[C@@H](CO)C(=O)NCC(N)=O` [Example 321] (H-Y[Aib]EGTFTSDYSILLDKK([AEEA-AEEA-γGlu-C18 diacid])AQ[Aib]TFIEYLIEGGPSSG-NH2) were, in that order, 770 nM, 0.064 nM, 4.2 nM, 0.204 nM and 0.0752 nM.
The like results for `CC[C@H](C)[C@H](NC(=O)[C@H](CC(C)C)NC(=O)[C@H](Cc1ccc(O)cc1)NC(=O)[C@H](CCC(=O)O)NC(=O)[C@@H](NC(=O)[C@H](Cc1ccccc1)NC(=O)[C@H](Cc1c[nH]cn1)NC(=O)C(C)(C)NC(=O)[C@H](CCC(N)=O)NC(=O)[C@H](C)NC(=O)[C@H](CCCCNC(=O)COCCOCCNC(=O)COCCOCCNC(=O)CC[C@H](NC(=O)CCCCCCCCCCCCCCCCC(=O)O)C(=O)O)NC(=O)[C@H](CCCCN)NC(=O)[C@H](CC(=O)O)NC(=O)[C@H](CC(C)C)NC(=O)[C@H](CC(C)C)NC(=O)[C@@H](NC(=O)[C@H](CO)NC(=O)[C@H](Cc1ccc(O)cc1)NC(=O)[C@H](CC(=O)O)NC(=O)[C@H](CO)NC(=O)[C@@H](NC(=O)[C@H](Cc1ccccc1)NC(=O)[C@@H](NC(=O)CNC(=O)[C@H](CCC(=O)O)NC(=O)C(C)(C)NC(=O)[C@@H](N)Cc1ccc(O)cc1)[C@@H](C)O)[C@@H](C)O)[C@@H](C)CC)[C@@H](C)CC)C(=O)N[C@@H](CCC(=O)O)C(=O)NCC(=O)NCC(=O)N1CCC[C@H]1C(=O)N[C@@H](CO)C(=O)N[C@@H](CO)C(=O)NCC(N)=O` [Example 322] (H-Y[Aib]EGTFTSDYSILLDKK([AEEA-AEEA-γGlu-C18 diacid])AQ[Aib]HFIEYLIEGGPSSG-NH2) were, in that order, 1030 nM, 0.175 nM, 2.31 nM, 0.711 nM and 0.146 nM.
As to `CC[C@H](C)[C@H](NC(=O)[C@H](CC(C)C)NC(=O)[C@H](Cc1ccc(O)cc1)NC(=O)[C@H](CCC(=O)O)NC(=O)[C@@H](NC(=O)[C@H](Cc1ccccc1)NC(=O)[C@H](CCC(=O)O)NC(=O)C(C)(C)NC(=O)[C@H](CCC(N)=O)NC(=O)[C@H](C)NC(=O)[C@H](CCCCNC(=O)COCCOCCNC(=O)COCCOCCNC(=O)CC[C@H](NC(=O)CCCCCCCCCCCCCCCCCCC(=O)O)C(=O)O)NC(=O)[C@H](CCCCN)NC(=O)[C@H](CC(=O)O)NC(=O)[C@H](CC(C)C)NC(=O)[C@](C)(CC(C)C)NC(=O)[C@@H](NC(=O)[C@H](CO)NC(=O)[C@H](Cc1ccc(O)cc1)NC(=O)[C@H](CC(=O)O)NC(=O)[C@H](CO)NC(=O)[C@@H](NC(=O)[C@H](Cc1ccccc1)NC(=O)[C@@H](NC(=O)CNC(=O)[C@H](CCC(=O)O)NC(=O)C(C)(C)NC(=O)[C@@H](N)Cc1ccccc1)[C@@H](C)O)[C@@H](C)O)[C@@H](C)CC)[C@@H](C)CC)C(=O)N[C@@H](C)C(=O)NCC(=O)NCC(=O)N1CCC[C@H]1C(=O)N[C@@H](CO)C(=O)N[C@@H](CO)C(=O)NCC(=O)N[C@@H](C)C(=O)N1CCC[C@H]1C(=O)N1CCC[C@H]1C(=O)N1CCC[C@H]1C(=O)N[C@@H](CO)C(N)=O` [Example 338] (H-F[Aib]EGTFTSDYSI[αMeL]LDKK([AEEA-AEEA-γGlu-C20 diacid])AQ[Aib]EFIEYLIAGGPSSGAPPPS-NH2), the Ki at human Gcg receptor was above 1060 nM; at human GIP receptor it was 0.0831 nM; on human GLP-1R [3], 3.23 nM. In addition, the EC50 worked out at 0.174 nM in assay [1], 0.0472 nM in assay [2] and 0.0189 µM on human GLP-1R [4]. In addition, the “hGLP1R B-Arrestin2 % Top” value on human GLP-1R [4] amounted to 47%.
Take `CC[C@H](C)[C@H](NC(=O)[C@H](CC(C)C)NC(=O)[C@H](Cc1ccc(O)cc1)NC(=O)[C@@H](CCC(=O)O)NC(=O)[C@@H](NC(=O)[C@H](Cc1ccccc1)NC(=O)[C@H](C)NC(=O)C(C)(C)NC(=O)[C@H](CCC(N)=O)NC(=O)[C@H](C)NC(=O)[C@H](CCCCNC(=O)COCCOCCNC(=O)COCCOCCNC(=O)CC[C@H](NC(=O)CCCCCCCCCCCCCCCCCCC(=O)O)C(=O)O)NC(=O)[C@H](CCCCN)NC(=O)[C@H](CC(=O)O)NC(=O)[C@H](CC(C)C)NC(=O)[C@](C)(CC(C)C)NC(=O)[C@@H](NC(=O)[C@H](CO)NC(=O)[C@H](Cc1ccc(O)cc1)NC(=O)[C@H](CC(=O)O)NC(=O)[C@H](CO)NC(=O)[C@@H](NC(=O)[C@H](Cc1ccccc1)NC(=O)[C@@H](NC(=O)CNC(=O)[C@H](CCC(=O)O)NC(=O)C(C)(C)NC(=O)[C@H](N)Cc1ccc(O)cc1)[C@@H](C)O)[C@@H](C)O)[C@@H](C)CC)C(C)C)C(=O)N[C@@H](C)C(=O)NCC(=O)NCC(=O)N1CCC[C@H]1C(=O)N[C@@H](CO)C(=O)N[C@@H](CO)C(=O)NCC(=O)N[C@@H](C)C(=O)N1CCC[C@H]1C(=O)N1CCC[C@H]1C(=O)N1CCC[C@H]1C(=O)N[C@@H](CO)C(N)=O` [Example 361] (H-[dY][Aib]EGTFTSDYSI[αMeL]LDKK([AEEA-AEEA-γGlu-C20 diacid])AQ[Aib]AFV[dE]YLIAGGPSSGAPPPS-NH2): the EC50 in assay [1] turned out to be 0.955 nM; in assay [2], 0.401 nM; at human GLP-1R [4], 0.269 µM. In addition, on human GLP-1R [4], the “hGLP1R B-Arrestin2 % Top” value is recorded as 20.2%.

Source of the values: US12252524B2, “GIP/GLP1 co-agonist compounds” (Eli Lilly and Company, priority 2018, dated 2025).
